Data published in US9273057B2 (Bristol-Myers Squibb Company, priority 2012, dated 2016).
Counter-ions that a name gives are not always drawn.

Target: CK2A1 (CK2α/β) (Homo sapiens, UniProt P68400)
Test: CK2 kinase assay, CK2A1 (CK2α/β)
Format: biochemical
Settings: Table A; read-out: CK2A1 (CK2α/β) (IC50)

CK2A1 (CK2α/β), sequence (P68400 whole entry, species assumed): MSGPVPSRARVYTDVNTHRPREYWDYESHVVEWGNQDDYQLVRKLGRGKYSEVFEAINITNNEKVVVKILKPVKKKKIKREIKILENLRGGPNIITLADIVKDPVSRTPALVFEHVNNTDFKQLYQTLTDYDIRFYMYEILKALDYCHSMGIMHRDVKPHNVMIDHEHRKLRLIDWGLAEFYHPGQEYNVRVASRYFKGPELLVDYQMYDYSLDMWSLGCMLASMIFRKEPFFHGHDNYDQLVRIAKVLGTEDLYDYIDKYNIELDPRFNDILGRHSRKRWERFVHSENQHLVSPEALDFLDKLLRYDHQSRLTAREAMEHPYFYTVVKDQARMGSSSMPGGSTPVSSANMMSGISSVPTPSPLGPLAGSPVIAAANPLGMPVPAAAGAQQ
CK2A1 (CK2α/β), sequence (P67870 whole entry partner, species assumed): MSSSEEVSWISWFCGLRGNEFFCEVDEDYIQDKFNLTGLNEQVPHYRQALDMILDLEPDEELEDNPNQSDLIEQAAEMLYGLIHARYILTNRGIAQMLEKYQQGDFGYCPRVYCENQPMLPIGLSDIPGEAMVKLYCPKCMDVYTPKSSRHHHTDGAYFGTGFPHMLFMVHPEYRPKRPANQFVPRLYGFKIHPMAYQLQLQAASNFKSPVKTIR

Compound | IC50 [pM]
N#Cc1cc(Nc2nc(NC3CC3)c3ncc(C#N)n3n2)c(F)cc1OC[C@@H]1COCCN1 [Example 417, (S)-2-((5-cyano-2-fluoro-4-(morpholin-3-ylmethoxy)phenyl)amino)-4-(cyclopropylamino)imidazo[2,1-f][1,2,4]triazine-7-carbonitrile] | 310
N#Cc1cc(Nc2nc(NC3CC3)c3ncc(C#N)n3n2)c(Cl)c(N2CCC[C@@H](NC3COC3)C2)c1 [Example 42, 2-((2-chloro-5-cyano-3-((3R)-3-(3-oxetanylamino)-1-piperidinyl)phenyl)amino)-4-(cyclopropylamino)imidazo [2,1-f][1,2,4]triazine-7-carbonitrile] | 2580
CCNc1nc(Nc2cc(C#N)cc(N3CC[C@@H](NC(=O)OC)[C@H](OC(=O)[C@@H](NC(=O)[C@@H](N)CCCNC(=N)N)C(C)C)C3)c2Cl)nn2c(C#N)cnc12 [Example 823, (S)-(3R,4R)-1-(2-chloro-5-cyano-3-((7-cyano-4-(ethylamino)imidazo[2,1-f][1,2,4]triazin-2-yl)amino)phenyl)-4-((methoxycarbonyl)amino)piperidin-3-yl 2-((S)-2-amino-5-guanidinopentanamide)-3-methylbutanoate trihydrochloride] | 2000
CC(C)(O)C1CCN(C2CN(c3cc(C#N)cc(Nc4nc(NC5CC5)c5ncc(C#N)n5n4)c3Cl)C2)CC1 [Example 158] | 650
CC1(O)CN(C2CCN(c3cc(C(F)F)cc(Nc4nc(NC5CC5)c5ncc(C#N)n5n4)c3Cl)CC2)C1 [Example 257, 2-((2-chloro-5-(difluoromethyl)-3-(4-(3-hydroxy-3-methyl-1-azetidinyl)-1-piperidinyl)phenyl)amino)-4-(cyclopropylamino)imidazo[2,1-f][1,2,4]triazine-7-carbonitrile] | 970
CN1CCC(N2CCN(c3cc(C#N)cc(Nc4nc(NC5CC5)c5ncc(C#N)n5n4)c3Cl)CC2)CC1 [Example 15, 2-((2-chloro-5-cyano-3-(4-(1-methyl-4-piperidinyl)-1-piperazinyl)phenyl)amino)-4-(cyclopropylamino)imidazo [2,1-f][1,2,4]triazine-7-carbonitrile] | 1980

Further lines, results first:

IC50 [pM] | Compound
610 | N#Cc1cc(Nc2nc(NC3CC3)c3ncc(C#N)n3n2)c(Cl)c(N2CCN3C[C@H](O)C[C@H]3C2)c1 (racemic) [Example 434, (+/−)-2-((2-chloro-5-cyano-3-((7R,8aS)-7-hydroxyhexahydropyrrolo[1,2-a]pyrazin-2(1H)-yl)phenyl)amino)-4-(cyclopropylamino)imidazo[2,1-f][1,2,4]triazine-7-carbonitrile]
800 | N#Cc1cc(Nc2nc(NC3CC3)c3ncc(C#N)n3n2)c(Cl)c(C2CCN(C3CN(C(=O)C(F)(F)F)C3)CC2)c1 [Example 638, 2-((2-chloro-5-cyano-3-(1-(1-(2,2,2-trifluoroacetyl)azetidin-3-yl)piperidin-4-yl)phenyl)amino)-4-(cyclopropylamino)imidazo[2,1-f][1,2,4]triazine-7-carbonitrile]
2820 | N#Cc1cc(Nc2nc(NC3CC3)c3ncc(C#N)n3n2)c(Cl)c(C(O)C2CCN(C3COC3)CC2)c1 (centres unmarked) [Example 655, 2-((2-chloro-5-cyano-3-(hydroxy(1-(oxetan-3-yl)piperidin-4-yl)methyl)phenyl)amino)-4-(cyclopropylamino)imidazo[2,1-f][1,2,4]triazine-7-carbonitrile]
620 | N#Cc1cc(Nc2nc(NC3CC3)c3ncc(C#N)n3n2)c(Cl)c(C2CCN(CC3CC3)CC2)c1 [Example 215, 2-((2-chloro-5-cyano-3-(1-(cyclopropylmethyl)-4-piperidinyl)phenyl)amino)-4-(cyclopropylamino)imidazo[2,1-f][1,2,4]triazine-7-carbonitrile]
530 | N#Cc1cc(Nc2nc(NC3CC3)c3ncc(C#N)n3n2)c(Cl)c(N2CCN(C(=O)Cn3ccnc3)CC2)c1 [Example 97, 2-((2-chloro-5-cyano-3-(4-(1H-imidazol-1-ylacetyl)-1-piperazinyl)phenyl)amino)-4-(cyclopropylamino) imidazo[2,1-f][1,2,4] triazine-7-carbonitrile]
